What all share (type): biochemical
One assay addresses JNK2 (Homo sapiens, UniProt P45984). Nature of the assay: JNK2 kinase DELFIA (phosphorylation of biotinylated GST-ATF2). To be noted: final ATP 4 uM, reported as range for a group. The method, then:
(§1) Before initiation of kinase reactions, compounds were pre-incubated with the enzyme for 10 minutes. Pre-incubation reactions contained 50 mM HEPES pH 7.3, 10 mM MgCl2, 1 mM DTT, 75 mM NaCl, 1 mM EDTA, 1 mM EGTA, 0.01% CHAPS, 2 nM JNK1, 6 ug/mL biotinylated GST-ATF2, 0.1 mg/ml BSA, 5% DMSO and 0-100 μM compound in a total volume of 40 μL. After a 10 minute room temperature pre-incubation, 10 μL of 35 μM ATP was added to start the reaction (final concentration of ATP=7 uM). Reactions were incubated at room temperature for 30 minutes. A small aliquot (10 uL) was taken and quenched by adding into 190 uL of DELFIA Assay buffer containing 100 mM EDTA. The amount of phosphate transferred to biotinylated GST-ATF2 was measured using the Dissociation Enhanced Lanthanide Fluorescence Immuno-assay (DELFIA) from Perkin Elmer according to manufacturers protocol. Briefly, biotinylated GST-ATF2 was captured on streptavidin coated plates for 1 hour, washed twice, then incubated for 1 hour with a 1:1000 dilution of rabbit-anti-phospho-ATF2 antibody and a 1:3500 dilution of Europium-labeled anti-rabbit secondary antibody. Free antibody was removed with six washes, Europium was dissociated from the antibody, and Europium fluorescence was measured using an excitation wavelength of 340 nm and an emission wavelength of 615 nm. JNK2 and JNK3 kinase reactions were carried out similarly, with the exception that the final concentration of ATP was 4 uM and 2 uM, respectively.

The target in the next assay is JNK3 (Homo sapiens, UniProt P53779). In words: JNK3 kinase DELFIA (phosphorylation of biotinylated GST-ATF2). To be noted: final ATP 2 uM. How it is done:
as §1

The target of a further assay is JNK1 (Homo sapiens, UniProt P45983). In words: JNK1 kinase DELFIA (phosphorylation of biotinylated GST-ATF2). How it is done:
as §1

[1] abbreviates: DELFIA, 2 nM JNK1, final ATP 7 uM, 10 min pre-incubation, reported as range for a group.

SMILES strings stand for the structures. Values joined by “and” are separate entries in the source; they are usually repeats but may differ in a detail not shown here. Equal entries are not always repeated. Where two headings read alike, the source gives them in different places.

The IC50 is the concentration needed to halve the response being measured.

JNK1, sequence (P45983 whole entry, species assumed): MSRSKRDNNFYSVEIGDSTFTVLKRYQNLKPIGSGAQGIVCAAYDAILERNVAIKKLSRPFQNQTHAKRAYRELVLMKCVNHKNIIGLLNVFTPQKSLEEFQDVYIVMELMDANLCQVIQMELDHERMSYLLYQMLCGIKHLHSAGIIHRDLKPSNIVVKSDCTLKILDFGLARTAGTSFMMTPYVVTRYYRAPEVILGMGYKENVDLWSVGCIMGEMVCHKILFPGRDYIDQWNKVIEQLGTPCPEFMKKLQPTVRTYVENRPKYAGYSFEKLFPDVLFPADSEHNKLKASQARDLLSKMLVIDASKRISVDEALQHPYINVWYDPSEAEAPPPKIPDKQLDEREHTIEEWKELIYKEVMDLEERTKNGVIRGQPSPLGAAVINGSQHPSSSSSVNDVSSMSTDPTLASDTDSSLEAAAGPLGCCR
JNK2, sequence (P45984 whole entry, species assumed): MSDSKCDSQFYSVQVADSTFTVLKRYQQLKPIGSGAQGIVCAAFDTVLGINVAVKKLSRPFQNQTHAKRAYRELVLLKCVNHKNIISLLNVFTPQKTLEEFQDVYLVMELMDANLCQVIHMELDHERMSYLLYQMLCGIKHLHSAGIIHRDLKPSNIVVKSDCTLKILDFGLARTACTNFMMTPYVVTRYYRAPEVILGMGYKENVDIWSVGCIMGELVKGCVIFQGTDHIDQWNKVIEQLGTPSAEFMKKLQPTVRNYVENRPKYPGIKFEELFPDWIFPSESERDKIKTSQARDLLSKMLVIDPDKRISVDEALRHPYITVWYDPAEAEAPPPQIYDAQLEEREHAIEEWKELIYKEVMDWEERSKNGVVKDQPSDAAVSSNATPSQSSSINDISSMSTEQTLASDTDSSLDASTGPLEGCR
JNK3, sequence (P53779 whole entry, species assumed): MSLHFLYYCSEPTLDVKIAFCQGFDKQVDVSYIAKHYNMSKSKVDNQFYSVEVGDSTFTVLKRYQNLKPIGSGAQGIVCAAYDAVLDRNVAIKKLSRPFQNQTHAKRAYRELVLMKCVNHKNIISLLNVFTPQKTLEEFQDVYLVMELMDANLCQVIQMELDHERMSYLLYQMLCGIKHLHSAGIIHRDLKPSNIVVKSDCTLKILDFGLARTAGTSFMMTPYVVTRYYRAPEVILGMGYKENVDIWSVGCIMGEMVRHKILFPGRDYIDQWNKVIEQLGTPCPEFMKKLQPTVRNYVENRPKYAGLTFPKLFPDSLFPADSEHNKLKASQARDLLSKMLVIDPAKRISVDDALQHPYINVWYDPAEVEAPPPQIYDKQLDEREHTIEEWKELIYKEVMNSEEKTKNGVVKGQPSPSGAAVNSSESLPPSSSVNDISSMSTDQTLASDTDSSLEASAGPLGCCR

For the molecule `CC[C@@H](CO)NC(=O)c1c(-c2ccsc2)nc2c(C(=O)NCc3ccc4nc(N)sc4c3)cccn12` [Compound 13], the IC50 at JNK2 lay in the range of 201 to 666 nM; on JNK3, 54 to 98 nM.

Regarding `CC(C)C[C@@H](CO)NC(=O)c1c(-c2ccsc2)nc2c(C(=O)NCc3ccc4nc(N)sc4c3)cccn12` [Compound 14], the half-maximal inhibitory concentration (IC50) was 6 to 100 nM and 6 to 20 nM against JNK1 (setting [1]); 4 to 46 nM at JNK2; 9 to 50 nM on JNK3.

On to `Nc1nc2ccc(CNC(=O)c3cccn4c(C(=O)NCC5(O)CCCCC5)c(-c5ccsc5)nc34)cc2s1` [Compound 15], for which the concentration for half-maximal inhibition (IC50) on JNK2 was 107 to 173 nM; against JNK3, 118 to 174 nM.

Take `Nc1nc2ccc(CNC(=O)c3cccn4c(C(=O)N[C@H](CO)c5ccccc5)c(-c5ccsc5)nc34)cc2s1` [Compound 16]: the half-inhibitory concentration (IC50) on JNK1 (setting [1]) is 6 to 100 nM and 6 to 20 nM; at JNK1 (read-out: JNK 1 IC50), 19 nM; on JNK2, 4 to 46 nM; on JNK3, 9 to 50 nM.

`CC(C)(C)[C@@H](CO)NC(=O)c1c(-c2ccsc2)nc2c(C(=O)NCc3ccc4nc(N)sc4c3)cccn12` [Compound 17]: the IC50 at JNK1 (setting [1]) was in the range of 6 to 100 nM; against JNK2, 4 to 46 nM; on JNK3, 9 to 50 nM.

`C[C@@H](CO)NC(=O)c1c(-c2ccsc2)nc2c(C(=O)NCc3ccc4nc(N)sc4c3)cccn12` [Compound 22]: the IC50 against JNK1 (setting [1]) was in the range of 6 to 100 nM; at JNK2, 52 to 94 nM; at JNK3 it was 9 to 50 nM.

Consider `C[C@H](CO)NC(=O)c1c(-c2ccsc2)nc2c(C(=O)NCc3ccc4nc(N)sc4c3)cccn12` [Compound 23], for which the concentration for half-maximal inhibition (IC50) lay within 107 to 173 nM against JNK2 and 118 to 174 nM against JNK3.

As to `CC(C)CNC(=O)c1c(-c2ccsc2)nc2c(C(=O)NCc3ccc4nc(N)sc4c3)cccn12` [Compound 38], the concentration for half-maximal inhibition (IC50) on JNK2 lay in the range of 201 to 666 nM; at JNK3 it was 54 to 98 nM.

`C[C@@H](NC(=O)c1c(-c2ccsc2)nc2c(C(=O)NCc3ccc4nc(N)sc4c3)cccn12)c1ccccc1` [Compound 42]: the IC50 at JNK2 is 52 to 94 nM; at JNK3 it was 118 to 174 nM.

On to `Nc1nc2ccc(CNC(=O)c3cccn4c(C(=O)NC[C@H]5CCCCC[C@H]5O)c(-c5ccsc5)nc34)cc2s1` [Compound 48], for which the IC50 against JNK1 (setting [1]) is 6 to 100 nM; against JNK2 it was 107 to 173 nM; at JNK3, 209 to 479 nM.

`Nc1nc2ccc(CNC(=O)c3cccn4c(C(=O)N[C@H]5CC[C@H](O)CC5)c(-c5ccsc5)nc34)cc2s1` [Compound 56]: the concentration for half-maximal inhibition (IC50) against JNK1 (setting [1]) is 6 to 100 nM; on JNK2, 107 to 173 nM; at JNK3 it was 118 to 174 nM.

On to `C[C@@H](NC(=O)c1c(-c2ccsc2)nc2c(C(=O)NCc3ccc4nc(N)sc4c3)cccn12)[C@@H](O)c1ccccc1` [Compound 62], for which the IC50 on JNK2 is 107 to 173 nM; against JNK3 it was 54 to 98 nM.

For the molecule `CS(=O)(=O)c1ccc(CNC(=O)c2cccn3c(C(=O)N[C@H](CO)c4ccccc4)c(-c4ccsc4)nc23)cc1` [Compound 93], the 50% inhibitory concentration (IC50) against JNK1 (setting [1]) is 6 to 100 nM; against JNK2, 52 to 94 nM; at JNK3 it was 54 to 98 nM.

Turning to `CC(C)C[C@@H](CO)NC(=O)c1c(-c2ccsc2)nc2c(C(=O)NCc3ccc4nc[nH]c4c3)cccn12` [Compound 111], the half-maximal inhibitory concentration (IC50) fell in the range of 52 to 94 nM at JNK2 and 54 to 98 nM against JNK3.

`Cc1nc2cc(CNC(=O)c3cccn4c(C(=O)N[C@H](CO)CC(C)C)c(-c5ccsc5)nc34)ccc2[nH]1` [Compound 112]: the IC50 was 6 to 20 nM and 6 to 10 nM on JNK1 (setting [1]); 8 nM on JNK1 (read-out: JNK 1 IC50); 4 to 46 nM at JNK2; 9 to 50 nM at JNK3.

On to `CC(C)C[C@@H](CO)NC(=O)c1c(-c2ccsc2)nc2c(C(=O)NCc3ccc4ncsc4c3)cccn12` [Compound 113], for which the IC50 against JNK2 fell in the range of 52 to 94 nM; on JNK3, 54 to 98 nM.

For the molecule `CC(C)C[C@@H](CO)NC(=O)c1c(-c2ccsc2)nc2c(C(=O)NCc3ccc4nc(C(C)C)[nH]c4c3)cccn12` [Compound 114], the figures for the IC50 on JNK1 (setting [1]), on JNK2 and against JNK3 were 6 to 20 nM, 4 to 46 nM and 9 to 50 nM, respectively.

As to `CC(C)C[C@@H](CO)NC(=O)c1c(-c2ccsc2)nc2c(C(=O)NCc3ccc4ncccc4c3)cccn12` [Compound 115], the IC50 fell in the range of 4 to 46 nM against JNK2 and 9 to 50 nM on JNK3.

Turning to `Cc1nc2ccc(CNC(=O)c3cccn4c(C(=O)N[C@H](CO)CC(C)C)c(-c5ccsc5)nc34)cc2s1` [Compound 130], the IC50 against JNK1 (setting [1]) lay within 6 to 100 nM; on JNK2, 4 to 46 nM; against JNK3, 9 to 50 nM.

Take `CNc1nc2ccc(CNC(=O)c3cccn4c(C(=O)N[C@H](CO)CC(C)C)c(-c5ccsc5)nc34)cc2s1` [Compound 155]: the IC50 lay within 4 to 46 nM against JNK2 and 9 to 50 nM against JNK3.

As for `CC[C@H](CO)NC(=O)c1c(-c2ccsc2)nc2c(C(=O)N[C@@H](C)c3ccc(S(C)(=O)=O)cc3)cccn12` [Compound 170], the half-inhibitory concentration (IC50) lay in the range of 1070 to 11500 nM against JNK2 and 118 to 174 nM against JNK3.

Regarding `CC[C@@H](CO)NC(=O)c1c(-c2ccsc2)nc2c(C(=O)NCc3ccc(-n4nccc4C(C)C)cc3)cccn12` [Compound 178], the half-maximal inhibitory concentration (IC50) was 201 to 666 nM against JNK2 and 209 to 479 nM against JNK3.

For `CC[C@@H](CO)NC(=O)c1c(-c2ccsc2)nc2c(C(=O)NCc3ccc(Cl)nc3)cccn12` [Compound 181], the IC50 lay in the range of 201 to 666 nM on JNK2 and 118 to 174 nM at JNK3.

On to `CC(C)C[C@H](CO)NC(=O)c1c(-c2ccsc2)nc2c(C(=O)NCc3ccc(S(C)(=O)=O)cc3)cccn12` [Compound 205], for which the IC50 at JNK2 lay in the range of 52 to 94 nM; on JNK3, 54 to 98 nM.

Take `CC(C)C[C@@H](CO)NC(=O)c1c(-c2ccsc2)nc2c(C(=O)NCc3ccc(N4CCCC4=O)cc3)cccn12` [Compound 206]: the half-maximal inhibitory concentration (IC50) at JNK2 was in the range of 52 to 94 nM; against JNK3 it was 54 to 98 nM.

In the case of `CC(C)C[C@@H](CO)NC(=O)c1c(-c2ccsc2)nc2c(C(=O)NCc3ccc(-c4ccccn4)s3)cccn12` [Compound 215], the half-inhibitory concentration (IC50) was 52 to 94 nM against JNK2 and 9 to 50 nM against JNK3.

For the molecule `CC(C)C[C@@H](CO)NC(=O)c1c(-c2ccsc2)nc2c(C(=O)NCc3cnn(-c4ccccc4)c3)cccn12` [Compound 216], the IC50 is 6 to 20 nM against JNK1 (setting [1]), 4 to 46 nM against JNK2 and 9 to 50 nM at JNK3.

`Cc1cccc(-n2cc(CNC(=O)c3cccn4c(C(=O)N[C@H](CO)CC(C)C)c(-c5ccsc5)nc34)cn2)c1` [Compound 218]: the values for the IC50 at JNK1 (setting [1]), against JNK2 and at JNK3 were 6 to 20 nM, 4 to 46 nM and 9 to 50 nM, respectively.

For `Cc1ccc(-n2cc(CNC(=O)c3cccn4c(C(=O)N[C@H](CO)CC(C)C)c(-c5ccsc5)nc34)cn2)cc1` [Compound 219], the results for the IC50 on JNK1 (setting [1]), against JNK2 and against JNK3 were 6 to 20 nM, 4 to 46 nM and 9 to 50 nM, respectively.

`CC(C)C[C@@H](CO)NC(=O)c1c(-c2ccsc2)nc2c(C(=O)NCC3CCN(C(=O)c4cccnc4)CC3)cccn12` [Compound 230]: the IC50 at JNK2 lay within 201 to 666 nM; on JNK3, 209 to 479 nM.

In the case of `CC(C)C[C@H](CO)NC(=O)c1c(-c2ccsc2)nc2c(C(=O)NCc3ccc(N4CCCC4)nc3)cccn12` [Compound 291], the half-inhibitory concentration (IC50) at JNK1 (setting [1]) lay in the range of 6 to 100 nM; against JNK2, 107 to 173 nM; on JNK3, 54 to 98 nM.

`CC(C)C[C@@H](CO)NC(=O)c1c(-c2ccsc2)nc2c(C(=O)NCc3ccnc(N4CCCC4)c3)cccn12` [Compound 296]: the IC50 on JNK1 (setting [1]) is 6 to 100 nM and 6 to 20 nM; on JNK2, 4 to 46 nM; at JNK3, 9 to 50 nM.

As for `Cc1cc(C(=O)NCc2ccc3nc(N)sc3c2)c2nc(-c3ccsc3)c(C(=O)N[C@@H](CO)CC(C)C)n2c1` [Compound 350], the IC50 is 1070 to 11500 nM at JNK2 and 16100 nM against JNK3.

(Values after patent US20100298314A1, “NOVEL JNK INHIBITORS” (Schering Corporation, priority 2006, published 2010).)
